From paper PMC11995724, “Antibiotic target discovery by integrated phenotypic and activity-based profiling of electrophilic fragments” (Cell chemical biology, 2025) come the findings set out here.

SMILES strings stand for the structures.

In general, viability refers to a read-out of living cells in per cent, often relative to untreated cells.

This data set in a line: in vitro. Particulars: human, hek293t cells.
Turning to `N#CC(=Cc1cccc2c1OCO2)C(=O)Nc1cccc2ccccc12` [8-K12, 3-(1,3-dioxaindan-4-yl)-2-cyano-N-(naphthalen-1-yl)prop-2-enamide], the viability at 48 h, 25 µM is 63.4%.
On to `Cc1ccc(NC(=O)C(C#N)=Cc2ccc(C)s2)cc1` [8-K13, 2-cyano-N-(4-methylphenyl)-3-(5-methylthiophen-2-yl)prop-2-enamide], for which the viability at 48 h, 25 µM came out at 77%.
To `Cc1cc(C=C(C#N)C(=O)Nc2ccncc2)c(C)n1C1CC1` [8-K14, 2-cyano-3-(1-cyclopropyl-2,5-dimethyl-1H-pyrrol-3-yl)-N-(pyridin-4-yl)prop-2-enamide] belongs 71.6%.
`Cc1ccccc1NC(=O)C(C#N)=Cc1ccsc1` [8-K15, 2-cyano-N-(2-methylphenyl)-3-(thiophen-3-yl)prop-2-enamide]: the viability at 48 h, 25 µM was 77.5%.
As for `COc1cc(C=C(C#N)C(=O)Nc2ccc(Cl)cc2)cc(OC)c1` [8-K16, N-(4-chlorophenyl)-2-cyano-3-(3,5-dimethoxyphenyl)prop-2-enamide], the viability at 48 h, 25 µM stood at 81.7%.
To `CN1C(=O)C(=C(C#N)C(=O)NCc2ccc(Cl)cc2)c2ccccc21` [8-K17, N-[(4-chlorophenyl)methyl]-2-cyano-2-(1-methyl-2-oxo-2,3-dihydro-1H-indol-3-ylidene)acetamide] belongs 78.3%.
To `CC(C)NC(=O)C(C#N)=Cc1ccc(-c2ccccc2F)o1` [8-K18, 2-cyano-3-[5-(2-fluorophenyl)furan-2-yl]-N-(propan-2-yl)prop-2-enamide] belongs 16%.
For the compound `COc1ccc(C=C(C#N)C(=O)NCc2ccccc2)cc1` [8-K19, N-benzyl-2-cyano-3-(4-methoxyphenyl)prop-2-enamide], the viability at 48 h, 25 µM was 77.3%.
To `N#CC(=Cc1ccc(Cl)cc1)C(=O)Nc1ccncc1` [8-K20, 3-(4-chlorophenyl)-2-cyano-N-(pyridin-4-yl)prop-2-enamide] belongs 61.4%; to `N#CC(=Cc1ccccc1OC(F)F)C(=O)Nc1ccccc1F` [8-K21, 2-cyano-3-[2-(difluoromethoxy)phenyl]-N-(2-fluorophenyl)prop-2-enamide], 82.5%.
To `CCc1ccc(NC(=O)C(C#N)=Cc2ccn(-c3ccccc3)n2)cc1` [8-K22, 2-cyano-N-(4-ethylphenyl)-3-(1-phenyl-1H-pyrazol-3-yl)prop-2-enamide] belongs 36.8%; to `N#CC(C(=O)Nc1ccc2c(c1)OCCO2)=C1N=C(N)c2ccccc21` [8-L03, 2-(3-amino-1H-isoindol-1-ylidene)-2-cyano-N-(2,3-dihydro-1,4-benzodioxin-6-yl)acetamide], 83.5%.
Regarding `N#CC(=Cc1cccc(Cl)c1Cl)C(=O)NCc1ccccc1` [8-L04, N-benzyl-2-cyano-3-(2,3-dichlorophenyl)prop-2-enamide], the viability at 48 h, 25 µM came out at 13.2%.
To `CC(C)NC(=O)C(C#N)=Cc1ccccc1` [8-L05, 2-cyano-3-phenyl-N-(propan-2-yl)prop-2-enamide] belongs 104%; to `Cn1cc(C=C(C#N)C(=O)NCc2ccco2)cn1` [8-L06, 2-cyano-N-[(furan-2-yl)methyl]-3-(1-methyl-1H-pyrazol-4-yl)prop-2-enamide], 89.4%; to `N#CC(=Cc1ccc(F)cc1)C(=O)Nc1ccc(C(=O)O)cc1` [8-L07, 4-[2-cyano-3-(4-fluorophenyl)prop-2-enamido]benzoic acid], 119%.
In the case of `CCCn1c(C)cc(C=C(C#N)C(=O)N2CCC2)c1C` [8-L08, 2-(azetidine-1-carbonyl)-3-(2,5-dimethyl-1-propyl-1H-pyrrol-3-yl)prop-2-enenitrile], the viability at 48 h, 25 µM worked out at 77.4%.
As to `C=CCNC(=O)C(C#N)=Cc1cccc(C(F)(F)F)c1` [8-L09, 2-cyano-N-(prop-2-en-1-yl)-3-[3-(trifluoromethyl)phenyl]prop-2-enamide], the viability at 48 h, 25 µM turned out to be 96.8%.
Turning to `Cn1cc(C=C(C#N)C(=O)NCCc2ccccc2)cn1` [8-L10, 2-cyano-3-(1-methyl-1H-pyrazol-4-yl)-N-(2-phenylethyl)prop-2-enamide], the viability at 48 h, 25 µM is 101%.
Consider `Cc1ccc(C)c(NC(=O)C(C#N)=Cc2ccc3c(c2)OCCO3)c1` [8-L11, 2-cyano-3-(2,3-dihydro-1,4-benzodioxin-6-yl)-N-(2,5-dimethylphenyl)prop-2-enamide], for which the viability at 48 h, 25 µM is 96.2%.
The figure for `COCCNC(=O)C(C#N)=Cc1cccc2ccccc12` [8-L12, 2-cyano-N-(2-methoxyethyl)-3-(naphthalen-1-yl)prop-2-enamide] is 91.8%; for `CC(C)NC(=O)C(C#N)=Cc1ccc(C(F)(F)F)cc1` [8-L13, 2-cyano-N-(propan-2-yl)-3-[4-(trifluoromethyl)phenyl]prop-2-enamide] it is 37.8%; for `CC(C)(C)c1ccc(C=C(C#N)C(=O)NCc2ccco2)cc1` [8-L14, 3-(4-tert-butylphenyl)-2-cyano-N-[(furan-2-yl)methyl]prop-2-enamide] it is 76.1%.
As to `CCC1SC(=C(C#N)C(=O)NC)N(c2ccc(Cl)cc2)C1=O` (stereo not shown) [8-L15, 2-[3-(4-chlorophenyl)-5-ethyl-4-oxo-1,3-thiazolidin-2-ylidene]-2-cyano-N-methylacetamide], the viability at 48 h, 25 µM was 132%.
The figure for `COc1ccc(-c2nn(-c3ccccc3)cc2C=C(C#N)C(N)=O)cc1` [8-L16, 2-cyano-3-[3-(4-methoxyphenyl)-1-phenyl-1H-pyrazol-4-yl]prop-2-enamide] is 109%.
Take `N#CC(=Cc1cccnc1)C(=O)Nc1cccc2ccccc12` [8-L17, 2-cyano-N-(naphthalen-1-yl)-3-(pyridin-3-yl)prop-2-enamide]: the viability at 48 h, 25 µM stood at 110%.
`CC(NC(=O)C(C#N)=Cc1cccc(F)c1)c1ccccc1` (stereo not shown) [8-L18, 2-cyano-3-(3-fluorophenyl)-N-(1-phenylethyl)prop-2-enamide]: the viability at 48 h, 25 µM was determined as 34.6%.
To `CCCn1c(C)cc(C=C(C#N)C(=O)Nc2cccc(F)c2)c1C` [8-L19, 2-cyano-3-(2,5-dimethyl-1-propyl-1H-pyrrol-3-yl)-N-(3-fluorophenyl)prop-2-enamide] belongs 103%.
The figure for `C=CCNC(=O)C(C#N)=Cc1ccc(-c2ccc(F)cc2)o1` [8-L20, 2-cyano-3-[5-(4-fluorophenyl)furan-2-yl]-N-(prop-2-en-1-yl)prop-2-enamide] is 114%; for `N#CC(=Cc1ccc(Cl)cc1)C(N)=O` [8-L21, 3-(4-chlorophenyl)-2-cyanoprop-2-enamide] it is 112%.
To `N#CC(=Cc1ccc(OC(F)F)cc1)C(=O)N1CCCC1` [8-L22, 3-[4-(difluoromethoxy)phenyl]-2-(pyrrolidine-1-carbonyl)prop-2-enenitrile] belongs 105%.
Take `COc1ccc(C=C(C#N)C(=O)Nc2cccc(C)c2)cc1` [8-M03, 2-cyano-3-(4-methoxyphenyl)-N-(3-methylphenyl)prop-2-enamide]: the viability at 48 h, 25 µM was found to be 95.7%.
For `CN1C(=CC=C(C#N)C(=O)NCC2CCCO2)C(C)(C)c2ccccc21` (stereo not shown) [8-M04, 2-cyano-N-[(oxolan-2-yl)methyl]-4-(1,3,3-trimethyl-2,3-dihydro-1H-indol-2-ylidene)but-2-enamide], the viability at 48 h, 25 µM was 77.7%.
To `COc1ccc(C=C(C#N)C(=O)Nc2cccnc2)cc1OC` [8-M05, 2-cyano-3-(3,4-dimethoxyphenyl)-N-(pyridin-3-yl)prop-2-enamide] belongs 118%; to `CCOc1cc(C=C(C#N)C(=O)N2CCCC2)cc(Cl)c1O` [8-M06, 3-(3-chloro-5-ethoxy-4-hydroxyphenyl)-2-(pyrrolidine-1-carbonyl)prop-2-enenitrile], 92.1%; to `Cc1ccc(C)c(NC(=O)C(C#N)=Cc2cccn2C)c1` [8-M07, 2-cyano-N-(2,5-dimethylphenyl)-3-(1-methyl-1H-pyrrol-2-yl)prop-2-enamide], 87.8%.
`Cc1n[nH]c(C)c1C=C(C#N)C(=O)Nc1cc(Cl)cc(Cl)c1` [8-M08, 2-cyano-N-(3,5-dichlorophenyl)-3-(3,5-dimethyl-1H-pyrazol-4-yl)prop-2-enamide]: the viability at 48 h, 25 µM is 58.6%.
To `CCN1C(=O)CSC1=C(C#N)C(N)=O` [8-M09, 2-cyano-2-(3-ethyl-4-oxo-1,3-thiazolidin-2-ylidene)acetamide] belongs 90.5%.
Turning to `N#CC(=Cc1cnn(-c2ccc(Cl)cc2)c1)C(=O)NC1CCCC1` [8-M10, 3-[1-(4-chlorophenyl)-1H-pyrazol-4-yl]-2-cyano-N-cyclopentylprop-2-enamide], the viability at 48 h, 25 µM came out at 83.3%.
To `CC(=O)Nc1ccc(C=C(C#N)C(=O)Nc2ccccc2Cl)cc1` [8-M11, N-(2-chlorophenyl)-2-cyano-3-(4-acetamidophenyl)prop-2-enamide] belongs 86.4%.
Consider `N#CC(=Cc1csnn1)C(=O)Nc1ccc(Oc2ccccc2)cc1` [8-M12, 2-cyano-N-(4-phenoxyphenyl)-3-(1,2,3-thiadiazol-4-yl)prop-2-enamide], for which the viability at 48 h, 25 µM was 43%.
To `CC(=O)Nc1ccc(C=C(C#N)C(=O)Nc2c(C)cc(C)cc2C)cc1` [8-M13, 2-cyano-3-(4-acetamidophenyl)-N-(2,4,6-trimethylphenyl)prop-2-enamide] belongs 87.7%.
For `Cc1ccc(C=C(C#N)C(=O)Nc2cccc3ccccc23)cc1` [8-M14, 2-cyano-3-(4-methylphenyl)-N-(naphthalen-1-yl)prop-2-enamide], the viability at 48 h, 25 µM was found to be 121%.
As for `CC(NC(=O)C(C#N)=Cc1ccc2c(c1)OCCO2)c1ccccc1` (stereo not shown) [8-M15, 2-cyano-3-(2,3-dihydro-1,4-benzodioxin-6-yl)-N-(1-phenylethyl)prop-2-enamide], the viability at 48 h, 25 µM came out at 64.3%.
To `CC(=O)N(c1ccc(C)c(C)c1)c1nc(C=C(C#N)C(N)=O)cs1` [8-M16, 2-cyano-3-{2-[N-(3,4-dimethylphenyl)acetamido]-1,3-thiazol-4-yl}prop-2-enamide] belongs 85.9%; to `CC(C)Oc1ccccc1C=C(C#N)C(=O)Nc1ccccc1` [8-M17, 2-cyano-N-phenyl-3-[2-(propan-2-yloxy)phenyl]prop-2-enamide], 78.4%.
